Test results taken from patent publication US7459414B2, “Herbicides” (Syngenta Crop Protection, Inc., priority 2002, dated 2008).

Tests used:
Type in all cases: in vivo
Alopecurus (Alo) [1] = assay: Example B2 post-emergence herbicidal action (comparison test); set-up: key: 1=total damage; 9=no action; conditions: 250 g of active ingredient/ha; 3- to 6-leaf stage; 3 weeks after application; scale of nine ratings, 1 to 4 = good to very good action
Protocol: (§1) Monocotyledonous and dicotyledonous weeds are grown in standard soil in plastics pots under greenhouse conditions. The test substances are applied to the test plants at the 3- to 6-leaf stage. […] suspension (prepared from a 25% wettable powder (Example F3, b)) or in the form of an emulsion (prepared from a 25% emulsifiable concentrate (Example F1, c)) (500 liters of water/ha). The evaluation is carried out 3 weeks after application, using a scale of nine ratings (1=total damage, 9=no action). Ratings of from 1 to 4 (especially from 1 to 3) indicate good to very good herbicidal action. Test plants: Alopecurus (Alo), Avena (Ave), Lolium (Lol), Setaria (Set), Panicum (Pan), Sorghum (Sor), Digitaria (Dig), Echinocloa (Ech) and Brachiaria (Bra).

Echinocloa (Ech) = assay: as above; set-up: key: 1=total damage; 9=no action; conditions: 250 g of active ingredient/ha; 3- to 6-leaf stage; 3 weeks after application; scale of nine ratings, 1 to 4 = good to very good action
Protocol: as §1

Setaria (Set) [2] = assay: as above; set-up: key: 1=total damage; 9=no action; conditions: 250 g of active ingredient/ha; 3- to 6-leaf stage; 3 weeks after application; scale of nine ratings, 1 to 4 = good to very good action
Protocol: as §1

Sorghum (Sor) [3] = assay: as above; set-up: key: 1=total damage; 9=no action; conditions: 250 g of active ingredient/ha; 3- to 6-leaf stage; 3 weeks after application; scale of nine ratings, 1 to 4 = good to very good action
Protocol: as §1

Avena (Ave) [4] = assay: as above; set-up: key: 1=total damage; 9=no action; conditions: 250 g of active ingredient/ha; 3- to 6-leaf stage; 3 weeks after application; scale of nine ratings, 1 to 4 = good to very good action
Protocol: as §1

Lolium (Lol) [5] = assay: as above; set-up: key: 1=total damage; 9=no action; conditions: 250 g of active ingredient/ha; 3- to 6-leaf stage; 3 weeks after application; scale of nine ratings, 1 to 4 = good to very good action
Protocol: as §1

Panicum (Pan) [6] = assay: as above; set-up: key: 1=total damage; 9=no action; conditions: 250 g of active ingredient/ha; 3- to 6-leaf stage; 3 weeks after application; scale of nine ratings, 1 to 4 = good to very good action
Protocol: as §1

Brachiaria (Bra) [7] = assay: as above; set-up: key: 1=total damage; 9=no action; conditions: 250 g of active ingredient/ha; 3- to 6-leaf stage; 3 weeks after application; scale of nine ratings, 1 to 4 = good to very good action
Protocol: as §1

Alopecurus (Alo) [8] = assay: Example B1 pre-emergence herbicidal action (comparison test); set-up: key: 1=total damage; 9=no action; conditions: 500 g of active ingredient/ha; 3 weeks after application; scale of nine ratings, 1 to 4 = good to very good action
Protocol: (§2) Monocotyledonous and dicotyledonous weeds are sown in plastics pots in standard soil. Immediately after sowing, the test substances are applied in the form of an aqueous suspension (prepared from a 25% wettable powder (Example F3, b)) or in the form of an emulsion (prepared from a 25% emulsifiable concentrate (Example F1, c)) (500 liters of water/ha). The rate of application is 500 g of active substance/ha. The test plants are then grown in the greenhouse under optimum conditions. The evaluation is carried out 3 weeks after application, using a scale of nine ratings (1=total damage, 9=no action). Ratings of from 1 to 4 (especially from 1 to 3) indicate good to very good herbicidal action. Test plants: Alopecurus (Alo), Avena (Ave), Lolium (Lol), Setaria (Set), Panicum (Pan), Sorghum (Sor), Digitaria (Dig), Echinochloa (Ech) and Brachiaria (Bra).

Setaria (Set) [9] = assay: as above; set-up: key: 1=total damage; 9=no action; conditions: 500 g of active ingredient/ha; 3 weeks after application; scale of nine ratings, 1 to 4 = good to very good action
Protocol: as §2

Sorghum (Sor) [10] = assay: as above; set-up: key: 1=total damage; 9=no action; conditions: 500 g of active ingredient/ha; 3 weeks after application; scale of nine ratings, 1 to 4 = good to very good action
Protocol: as §2

Avena (Ave) [11] = assay: as above; set-up: key: 1=total damage; 9=no action; conditions: 500 g of active ingredient/ha; 3 weeks after application; scale of nine ratings, 1 to 4 = good to very good action
Protocol: as §2

Lolium (Lol) [12] = assay: as above; set-up: key: 1=total damage; 9=no action; conditions: 500 g of active ingredient/ha; 3 weeks after application; scale of nine ratings, 1 to 4 = good to very good action
Protocol: as §2

Panicum (Pan) [13] = assay: as above; set-up: key: 1=total damage; 9=no action; conditions: 500 g of active ingredient/ha; 3 weeks after application; scale of nine ratings, 1 to 4 = good to very good action
Protocol: as §2

Echinochloa (Ech) = assay: as above; set-up: key: 1=total damage; 9=no action; conditions: 500 g of active ingredient/ha; 3 weeks after application; scale of nine ratings, 1 to 4 = good to very good action
Protocol: as §2

Brachiaria (Bra) [14] = assay: as above; set-up: key: 1=total damage; 9=no action; conditions: 500 g of active ingredient/ha; 3 weeks after application; scale of nine ratings, 1 to 4 = good to very good action
Protocol: as §2

Digitaria (Dig) [15] = assay: as above; conditions: 500 g of active ingredient/ha; 3 weeks after application; scale of nine ratings, 1 to 4 = good to very good action
Protocol: as §2

Digitaria (Dig) [16] = assay: Example B2 post-emergence herbicidal action (comparison test); conditions: 250 g of active ingredient/ha; 3- to 6-leaf stage; 3 weeks after application; scale of nine ratings, 1 to 4 = good to very good action
Protocol: as §1

Setaria (Set) [17] = assay: Example B4 post-emergence herbicidal action, MERGE oil additive 0.7% (Table B4); set-up: key: 1=total damage; 9=no action; conditions: 500 g of active substance per hectare; applied at 3- to 6-leaf stage; MERGE oil additive 0.7% by weight of the spray mixture; evaluation 3 weeks after application; scale of nine ratings
Protocol: (§3) Monocotyledonous and dicotyledonous weeds are grown in standard soil in plastics pots under greenhouse conditions. The test substances are applied to the test plants at the 3- to 6-leaf stage. The test substances are applied at a rate of application of 500 g of active substance per hectare in the form of an aqueous suspension (prepared from a 25% wettable powder (Example F3, b)) or in the form of an emulsion (prepared from a 25% emulsifiable concentrate (Example F1, c)) (500 liters of water/ha). The evaluation is carried out 3 weeks after application, using a scale of nine ratings (1=total damage, 9=no action). Ratings of from 1 to 4 (especially from 1 to 3) indicate good to very good herbicidal action. Herbicidal Action After the Emergence of the Plants (Post-emergence Action) of Compounds of the Present Invention (for Description See Example B2) Test plants: Avena (Ave), Lolium (Lol), Setaria (Set).

Avena (Ave) [18] = assay: as above; set-up: key: 1=total damage; 9=no action; conditions: 500 g of active substance per hectare; applied at 3- to 6-leaf stage; MERGE oil additive 0.7% by weight of the spray mixture; evaluation 3 weeks after application; scale of nine ratings
Protocol: as §3

Lolium (Lol) [19] = assay: as above; set-up: key: 1=total damage; 9=no action; conditions: 500 g of active substance per hectare; applied at 3- to 6-leaf stage; MERGE oil additive 0.7% by weight of the spray mixture; evaluation 3 weeks after application; scale of nine ratings
Protocol: as §3

SMILES: Cc1cc(C)c(-c2c(OC(=O)C(C)(C)C)n3n(c2=O)CCCC3)c(C)c1 [compound A, reference compound]
- Post-emergence action rating, Alo (Alopecurus (Alo) [1]): 3
- Post-emergence action rating, Ech (Echinocloa (Ech)): 1
- Post-emergence action, rating, Set (Setaria (Set) [2]): 2
- Post-emergence action rating, Sor (Sorghum (Sor) [3]): 3
- Post-emergence action, rating, Ave (Avena (Ave) [4]): 3
- Post-emergence action, rating, Lol (Lolium (Lol) [5]): 2
- Post-emergence action rating, Pan (Panicum (Pan) [6]): 1
- Post-emergence action rating, Bra (Brachiaria (Bra) [7]): 2
- Pre-emergence action rating, Alo (Alopecurus (Alo) [8]): 2
- Pre-emergence action, rating, Set (Setaria (Set) [9]): 2
- Pre-emergence action rating, Sor (Sorghum (Sor) [10]): 4
- Pre-emergence action, rating, Ave (Avena (Ave) [11]): 4
- Pre-emergence action, rating, Lol (Lolium (Lol) [12]): 1
- Pre-emergence action rating, Pan (Panicum (Pan) [13]): 1
- Pre-emergence action rating, Ech (Echinochloa (Ech)): 5
- Pre-emergence action rating, Bra (Brachiaria (Bra) [14]): 3
- Pre-emergence action rating, Dig (Digitaria (Dig) [15]): 4
- Post-emergence action rating, Dig (Digitaria (Dig) [16]): 2

SMILES: CCc1cc(C)cc(CC)c1-c1c(O)n2n(c1=O)CC(OC(C)C(=O)OC)CC2 (stereo not drawn) [1.26]
- Post-emergence action, rating, Set (Setaria (Set) [17]): 1
- Post-emergence action, rating, Ave (Avena (Ave) [18]): 1
- Post-emergence action, rating, Lol (Lolium (Lol) [19]): 2

SMILES: CCc1cc(C)cc(CC)c1-c1c(O)n2n(c1=O)CC(OCC(=O)O)CC2 (stereo not drawn) [1.19]
- Post-emergence action, rating, Set (Setaria (Set) [17]): 1
- Post-emergence action, rating, Ave (Avena (Ave) [18]): 1
- Post-emergence action, rating, Lol (Lolium (Lol) [19]): 1

SMILES: CCc1cc(C)cc(CC)c1-c1c(O)n2n(c1=O)CC(O)C(Cl)C2 (stereo not drawn) [1.10]
- Post-emergence action, rating, Set (Setaria (Set) [17]): 1
- Post-emergence action, rating, Ave (Avena (Ave) [18]): 1
- Post-emergence action, rating, Lol (Lolium (Lol) [19]): 1

SMILES: CCc1cc(C)cc(CC)c1-c1c(O)n2n(c1=O)CC1OC3(CCCCC3)OC1C2 (stereo not drawn) [1.27]
- Post-emergence action, rating, Set (Setaria (Set) [17]): 2
- Post-emergence action, rating, Ave (Avena (Ave) [18]): 1
- Post-emergence action, rating, Lol (Lolium (Lol) [19]): 1
